Reference: publication PMC3961306, “Comparison of the Cancer Gene Targeting and Biochemical Selectivities of All Targeted Kinase Inhibitors Approved for Clinical Use” (PLoS ONE, 2014)
Where two headings read alike, the source gives them in different places.

Assays:
[1] = system: forty-four human cancer cell lines; assay: Cell proliferation assay (ATPlite, 72 hours) in the 44 cell line Oncolines panel; type: cell-based; conditions: Homo sapiens
[2] = target: panel of more than 300 wild-type and mutant kinases (313 kinase panel) (Homo sapiens, UniProt P35968); assay: Kinase profiling in a biochemical assay panel (mobility shift assays and ELISA), %-inhibition at 1 μM; selectivity entropy; conditions: kinase KDR; compound at 1 μM
[3] = target: panel of more than 300 wild-type and mutant kinases (313 kinase panel) (Homo sapiens, UniProt P00533); assay: as above; conditions: kinase EGFR; compound at 1 μM
[4] = target: panel of more than 300 wild-type and mutant kinases (313 kinase panel) (Homo sapiens, UniProt P00533, T790M); assay: as above; conditions: kinase EGFR(T790M); compound at 1 μM
[5] = target: panel of more than 300 wild-type and mutant kinases (313 kinase panel) (Homo sapiens, UniProt P00519, E255K); assay: as above; conditions: kinase ABL(E255K); 1 μM compound
[6] = target: panel of more than 300 wild-type and mutant kinases (313 kinase panel) (Homo sapiens, UniProt P00533, L861Q); assay: as above; conditions: kinase EGFR(L861Q); compound at 1 μM
[7] = target: panel of more than 300 wild-type and mutant kinases (313 kinase panel) (Homo sapiens, UniProt P00533, L858R); assay: as above; conditions: kinase EGFR(L858R); compound at 1 μM
[8] = target: panel of more than 300 wild-type and mutant kinases (313 kinase panel) (Homo sapiens, UniProt P07947, T348I); assay: as above; conditions: kinase YES(T348I); compound at 1 μM
[9] = target: panel of more than 300 wild-type and mutant kinases (313 kinase panel) (Homo sapiens, UniProt Q9UM73, R1275Q); assay: as above; conditions: kinase ALK(R1275Q); 1 μM compound
[10] = target: panel of more than 300 wild-type and mutant kinases (313 kinase panel) (Homo sapiens, UniProt P22612); assay: as above; conditions: kinase PKACγ; 1 μM
[11] = target: panel of more than 300 wild-type and mutant kinases (313 kinase panel) (Homo sapiens, UniProt P00533, L858R/T790M); assay: as above; conditions: kinase EGFR(T790M/L858R); compound at 1 μM
[12] = target: panel of more than 300 wild-type and mutant kinases (313 kinase panel) (Homo sapiens, UniProt P00519); assay: as above; conditions: kinase ABL; 1 μM compound
[13] = target: panel of more than 300 wild-type and mutant kinases (313 kinase panel) (Homo sapiens, UniProt P15056); assay: as above; conditions: kinase BRAF; 1 μM compound
[14] = target: panel of more than 300 wild-type and mutant kinases (313 kinase panel) (Homo sapiens, UniProt P11362, V561M); assay: as above; conditions: kinase FGFR1(V561M); compound at 1 μM
[15] = target: panel of more than 300 wild-type and mutant kinases (313 kinase panel) (Homo sapiens, UniProt P09619); assay: as above; conditions: kinase PDGFRβ; 1 μM
[16] = A 172, read-out: cell panel IC50, A-172
[17] = A204, cell line A-204, read-out: cell panel IC50, A-204
[18] = A498, read-out: cell panel IC50, A-498
[19] = A549, read-out: cell panel IC50, A-549
[20] = A-375, cell line A375, read-out: cell panel IC50, A375
[21] = A-427, read-out: cell panel IC50, A-427
[22] = AU565, read-out: cell panel IC50, AU-565
[23] = BT-549, read-out: cell panel IC50, BT-549
[24] = HCT-116, read-out: cell panel IC50, HCT-116
[25] = K562, read-out: cell panel IC50, K-562
[26] = LS174T, read-out: cell panel IC50, LS 174T
[27] = SHP77, cell line SHP-77, read-out: cell panel IC50, SHP-77
[28] = SW-620, cell line SW620, read-out: cell panel IC50, SW620
[29] = U2OS, cell line U-2 OS, read-out: cell panel IC50, U-2 OS
[30] = cell line J82, read-out: cell panel IC50, J82
[31] = cell line PA-1, read-out: cell panel IC50, PA-1
[32] = cell line SJCRH30, read-out: cell panel IC50, SJCRH30
[33] = cell line SR, read-out: cell panel IC50, SR
[34] = U-87 MG cell line, ATPlite, 72 hours, read-out: IC50 in cell proliferation assay (table S5 cellpanel data)
[35] = cell line 769-P, read-out: cell panel IC50, 769-P
[36] = cell line 786-0, read-out: cell panel IC50, 786-0
[37] = cell line ACHN, read-out: cell panel IC50, ACHN
[38] = cell line AN3 CA, read-out: cell panel IC50, AN3 CA
[39] = cell line BT-20, read-out: cell panel IC50, BT-20
[40] = cell line BxPC-3, read-out: cell panel IC50, BxPC-3
[41] = cell line C-33 A, read-out: cell panel IC50, C-33 A
[42] = cell line CAL 27, read-out: cell panel IC50, CAL 27
[43] = cell line CCRF-CEM, read-out: cell panel IC50, CCRF-CEM
[44] = cell line DLD-1, read-out: cell panel IC50, DLD-1
[45] = cell line FaDu, read-out: cell panel IC50, FaDu
[46] = cell line HCT-15, read-out: cell panel IC50, HCT-15
[47] = cell line Hs 578T, read-out: cell panel IC50, Hs 578T
[48] = cell line Jurkat E6.1, read-out: cell panel IC50, Jurkat E6.1
[49] = cell line LoVo, read-out: cell panel IC50, LoVo
[50] = cell line MG-63, read-out: cell panel IC50, MG-63
[51] = cell line MOLT-4, read-out: cell panel IC50, MOLT-4
[52] = cell line MeWo, read-out: cell panel IC50, MeWo
[53] = cell line NCI-H82, read-out: cell panel IC50, NCI-H82
[54] = cell line NCI-H460, read-out: cell panel IC50, NCI-H460
[55] = cell line OVCAR-3, read-out: cell panel IC50, OVCAR-3
[56] = cell line RPMI-7951, read-out: cell panel IC50, RPMI-7951
[57] = cell line SK-N-AS, read-out: cell panel IC50, SK-N-AS
[58] = cell line SW48, read-out: cell panel IC50, SW48
[59] = cell line SW480, read-out: cell panel IC50, SW480

## CNC(=O)c1cc(Oc2ccc(NC(=O)Nc3ccc(Cl)c(C(F)(F)F)c3)c(F)c2)ccn1 [regorafenib]
[1]; [16]
  IC50: 3.95 µM
[1]; [17]
  IC50: 3.01 µM
[1]; [18]
  IC50: 3.41 µM
[1]; [19]
  IC50: 2.92 µM
[1]; [20]
  IC50: 3.56 µM
[1]; [21]
  IC50: 8.73 µM
[1]; [22]
  IC50: 0.687 µM
[1]; [23]
  IC50: 16.6 µM
[1]; [24]
  IC50: 3.51 µM
[1]; [25]
  IC50: 4.17 µM
[1]; [26]
  IC50: 3.76 µM
[1]; [27]
  IC50: > 31.6 µM
[1]; [28]
  IC50: 9.66 µM
[1]; [29]
  IC50: 3.08 µM
[1]; [30]
  IC50: 3.27 µM
[1]; [31]
  IC50: 2.96 µM
[1]; [32]
  IC50: 10.7 µM
[1]; [33]
  IC50: 3.1 µM
[1]; [34]
  IC50: 11.8 µM
[1]; [35]
  IC50: 2.9 µM
[1]; [36]
  IC50: 7.29 µM
[1]; [37]
  IC50: 1.82 µM
[1]; [38]
  IC50: 5.84 µM
[1]; [39]
  IC50: 3.93 µM
[1]; [40]
  IC50: 4 µM
[1]; [41]
  IC50: 1.02 µM
[1]; [42]
  IC50: 1.54 µM
[1]; [43]
  IC50: 9.54 µM
[1]; [44]
  IC50: 3.54 µM
[1]; [45]
  IC50: 1.62 µM
[1]; [46]
  IC50: 3.15 µM
[1]; [47]
  IC50: 22.6 µM
[1]; [48]
  IC50: 2.52 µM
[1]; [49]
  IC50: 2.7 µM
[1]; [50]
  IC50: 3.63 µM
[1]; [51]
  IC50: 3.31 µM
[1]; [52]
  IC50: 30.8 µM
[1]; [53]
  IC50: 3.58 µM
[1]; [54]
  IC50: 3.95 µM
[1]; [55]
  IC50: 3.63 µM
[1]; [56]
  IC50: 5.88 µM
[1]; [57]
  IC50: 6.43 µM
[1]; [58]
  IC50: 1.01 µM
[1]; [59]
  IC50: > 31.6 µM
[2]
  %-inhibition of KDR: 103%
[3]
  %-inhibition of EGFR: 12%
[4]
  %-inhibition of EGFR(T790M): -7.38%
[5]
  %-inhibition, ABL(E255K): 33%
[6]
  %-inhibition of EGFR(L861Q): 6%
[7]
  %-inhibition of EGFR(L858R): 2.24%
[8]
  %-inhibition of YES(T348I): 40%
[9]
  %-inhibition, ALK(R1275Q): 5%
[10]
  %-inhibition of PKACγ: -0.823%
[11]
  %-inhibition of EGFR(T790M/L858R): 1.68%
[12]
  %-inhibition, ABL: 68%

## CCCS(=O)(=O)Nc1ccc(F)c(C(=O)c2c[nH]c3ncc(-c4ccc(Cl)cc4)cc23)c1F [vemurafenib]
[1]; [16]
  IC50: > 31.6 µM
[1]; [17]
  IC50: > 31.6 µM
[1]; [18]
  IC50: 20.6 µM
[1]; [19]
  IC50: 29.2 µM
[1]; [20]
  IC50: 3.98 µM
[1]; [21]
  IC50: > 31.6 µM
[1]; [22]
  IC50: > 31.6 µM
[1]; [23]
  IC50: 26.9 µM
[1]; [24]
  IC50: > 31.6 µM
[1]; [25]
  IC50: 29.9 µM
[1]; [26]
  IC50: > 31.6 µM
[1]; [27]
  IC50: > 31.6 µM
[1]; [28]
  IC50: 31.6 µM
[1]; [29]
  IC50: > 31.6 µM
[1]; [30]
  IC50: > 31.6 µM
[1]; [31]
  IC50: 10.3 µM
[1]; [32]
  IC50: > 31.6 µM
[1]; [33]
  IC50: 8.86 µM
[1]; [34]
  IC50: > 31.6 µM
[1]; [35]
  IC50: > 31.6 µM
[1]; [36]
  IC50: 22.6 µM
[1]; [37]
  IC50: 24 µM
[1]; [38]
  IC50: > 31.6 µM
[1]; [39]
  IC50: > 31.6 µM
[1]; [40]
  IC50: 14.2 µM
[1]; [41]
  IC50: > 31.6 µM
[1]; [42]
  IC50: > 31.6 µM
[1]; [43]
  IC50: 23 µM
[1]; [44]
  IC50: > 31.6 µM
[1]; [45]
  IC50: > 31.6 µM
[1]; [46]
  IC50: 30.6 µM
[1]; [47]
  IC50: 24.8 µM
[1]; [48]
  IC50: 27.1 µM
[1]; [49]
  IC50: 31.3 µM
[1]; [50]
  IC50: > 31.6 µM
[1]; [51]
  IC50: 31.1 µM
[1]; [52]
  IC50: > 31.6 µM
[1]; [53]
  IC50: 30.4 µM
[1]; [54]
  IC50: 30.4 µM
[1]; [55]
  IC50: > 31.6 µM
[1]; [56]
  IC50: 20.9 µM
[1]; [57]
  IC50: > 31.6 µM
[1]; [58]
  IC50: > 31.6 µM
[1]; [59]
  IC50: 22.5 µM
[13]
  %-inhibition, BRAF: 99%
[2]
  %-inhibition of KDR: 13%
[3]
  %-inhibition of EGFR: 7%
[4]
  %-inhibition of EGFR(T790M): -5.57%
[5]
  %-inhibition, ABL(E255K): 2.49%
[6]
  %-inhibition of EGFR(L861Q): 5%
[7]
  %-inhibition of EGFR(L858R): 0.505%
[8]
  %-inhibition of YES(T348I): 4%
[9]
  %-inhibition, ALK(R1275Q): 3.57%
[14]
  %-inhibition of FGFR1(V561M): 5.37%
[15]
  %-inhibition of PDGFRβ: 33%
[10]
  %-inhibition of PKACγ: -3%
[11]
  %-inhibition of EGFR(T790M/L858R): 5%
[12]
  %-inhibition, ABL: 15%
